The values below come from patent US20260053932A1, “COMPOUNDS AND METHODS FOR THE TARGETED DEGRADATION OF ANDROGEN RECEPTOR AND ASSOCIATED METHODS OF USE” (Arvinas Operations, Inc., priority 2020, published 2026).

Broadly, the DC50 is the midpoint of the concentration-degradation curve.

Some results are limits rather than exact numbers.

The first assay deals with androgen receptor (AR) in LNCaP and/or VCaP cells. Kind of assay: Androgen Receptor ELISA assay (AR degradation). Type of assay: cell-based. The settings on record: LNCaP and/or VCaP cells; 5 hours incubation; media with R1881; read-out: DC50 Code* (degradation of AR ELISA). The protocol: Androgen Receptor ELISA Assay. […] The protocols used with VCaP cells are described below.
The cells were grown for a minimum of 3 days.
(2)(i) A 10× stock plate in media was made; (ii) 2.5 μL of the 1000× stock was transferred to a new 10× stock plate (use 12 channel pipet, start at A (DMSO control) work thru H. When 247.5 µL of media was added to this plate, it served as a 10× stock; (iii) made media+1 nM R1881 for making 10× stock plate; (iv) added 247.5 μL of media with 1 nM R1881 to each well of the 10× stock plate, mix.
Then 22 μL of 10× stock was added to cells and incubated for 5 hours. […] Media was aspirated, and 100 μL 1× cell lysis buffer/well was added. The cells were placed on a shaker located in a cold room for 10 minutes and shaken at speed 7. The lysate mixture was mix and 20 μL transferred to 100 μl of Diluent in ELISA plate (0.15 μg/ml-[…]). The lysate-diluent mixture was store at 4° C. overnight on a shaker located in a cold room at speed 5 (gentle swirl).
The lysate-diluent mixture was shaken for 30 minutes at 37° C. The mouse AR antibody, anti-mouse antibody, TMB, and STOP solution were allowed to come to room temperature. The 1×ELISA buffer included in kit was made and loaded in reservoir. Media from the plate was discarded, the ELISA plate was tapped hard on paper towel, and washed 4×200 μl ELISA wash buffer using a plate washer for the first three washes and an eight channel aspirator for the fourth wash to more thoroughly aspirate the solution.
Next, 100 μL/well of mouse AR detection Ab was added; the plate was covered and shaken at 37° C. for 1 hour; media was discarded from the plates, the plates tapped on a paper towel and washed four times with 200 μL ELISA wash buffer with a plate washer for the first three washes and an eight channel aspirator for the fourth wash; 100 μL/well of anti-mouse—HRP conjugated Ab (comes with the kit) was added; the plates was cover and shaken at 37° C. for 30 minutes; the TMB reagent was allowed to come to room temperature; the media from the plate was discarded, the plates tapped on paper towel, and washed four times with 200 μL ELISA wash buffer with a plate washer for the first three washes and an eight channel aspirator for the fourth wash; plates were tapped on paper towel; 100 μL TMB was added to each well and the plate shaken for 2 minutes—while watching color. STOP solution (100 μL) was added when light blue color developed.
Data was analyzed and plotted using GraphPad Prism software. Exemplary compounds of Tables 1A, 1B, and 1C were assayed and the data shown below in Tables 2A, 2B, and 2C. DC50 (nM) categories (degradation of AR ELISA in LNCaP and/or VCaP cells) of Tables 2A, 2B, and 2C are as follows: A<1 nM; 1≤B<10 nM; 10≤C<100 nM; D≥100 nM. Dmax (%) categories (degradation of AR ELISA in LNCaP and/or VCaP cells) of Table 2 are as follows: A≥70; 50≤B<70; C<50
For orientation: In an ELISA, binding on a coated surface is turned into a signal by an enzyme label.
`COc1cc(O[C@H]2CC[C@H](NC(=O)c3cnc(N4CC(CN(C(C)C)[C@H]5C[C@H](Oc6ccc7c(c6)C(=O)N(C6CCC(=O)NC6=O)C7=O)C5)C4)nc3)CC2)ccc1C#N` (stereo partly shown) [Compound 57, N-((1r,4r)-4-(4-cyano-3-methoxyphenoxy)cyclohexyl)-2-(3-((((1r,3r)-3-((2-(2,6-dioxopiperidin-3-yl)-1,3-dioxoisoindolin-5-yl)oxy)cyclobutyl) (isopropyl)amino)methyl)azetidin-1-yl)pyrimidine-5-carboxamide]: the DC50 was under 1 nM.
Still for that read-out and setting: to `N#Cc1ccc(O[C@H]2CC[C@H](NC(=O)c3cnc(N4CCC(CN(CC5COC5)[C@H]5C[C@H](Oc6ccc7c(c6)C(=O)N(C6CCC(=O)NC6=O)C7=O)C5)CC4)cn3)CC2)cc1Cl` (stereo partly shown) [Compound 53, N-((1r,4r)-4-(3-chloro-4-cyanophenoxy)cyclohexyl)-5-(4-((((1r,3r)-3-((2-(2,6-dioxopiperidin-3-yl)-1,3-dioxoisoindolin-5-yl)oxy)cyclobutyl) (oxetan-3-ylmethyl)amino)methyl)piperidin-1-yl)pyrazine-2-carboxamide] belongs under 1 nM; to `COc1cc(O[C@H]2C[C@H](N(CC3CCN(c4ncc(C(=O)NC5CC6(C5)CC(Oc5cc(C)c(C#N)c(C)c5)C6)cn4)CC3)C(C)C)C2)cc2c1C(=O)N(C1CCC(=O)NC1=O)C2=O` (stereo partly shown) [Compound 1, N-(6-(4-cyano-3,5-dimethylphenoxy)spiro [3.3]heptan-2-yl)-2-(4-((((1r,3r)-3-((2-(2,6-dioxopiperidin-3-yl)-7-methoxy-1,3-dioxoisoindolin-5-yl)oxy)cyclobutyl) (isopropyl)amino)methyl)piperidin-1-yl)pyrimidine-5-carboxamide], 1 to 10 nM; to `COc1cc(O[C@H]2C[C@H](N(CC3CCN(c4ncc(C(=O)N[C@H]5CC[C@H](Oc6cc(C)c(C#N)c(C)c6)C5)cn4)CC3)C(C)C)C2)cc2c1C(=O)N(C1CCC(=O)NC1=O)C2=O` (stereo partly drawn) [Compound 5, N-((1S,3S)-3-(4-cyano-3,5-dimethylphenoxy)cyclopentyl)-2-(4-((((1r,3S)-3-((2-(2,6-dioxopiperidin-3-yl)-7-methoxy-1,3-dioxoisoindolin-5-yl)oxy)cyclobutyl) (isopropyl)amino)methyl)piperidin-1-yl)pyrimidine-5-carboxamide], over 100 nM.
Still for that read-out and setting: to `CC(C)N(CC1CN(c2ncc(C(=O)N[C@H]3CC[C@H](Oc4ccc(C#N)c(Cl)c4)CC3)cn2)C1)[C@H]1C[C@H](Oc2ccc3c(c2)C(=O)N(C2CCC(=O)NC2=O)C3=O)C1` (stereo partly shown) [Compound 66, N-((1r,4r)-4-(3-chloro-4-cyanophenoxy)cyclohexyl)-2-(3-((((1r,3r)-3-((2-(2,6-dioxopiperidin-3-yl)-1,3-dioxoisoindolin-5-yl)oxy)cyclobutyl) (isopropyl)amino)methyl)azetidin-1-yl)pyrimidine-5-carboxamide] belongs under 1 nM; to `COc1cc(O[C@H]2C[C@H](N(CC3CCN(c4cnc(C(=O)N[C@H]5CC[C@H](Oc6cc(C)c(C#N)c(C)c6)CC5)cn4)CC3)C(C)C)C2)cc2c1C(=O)N(C1CCC(=O)NC1=O)C2=O` (stereo partly shown) [Compound 17, N-((1r,4r)-4-(4-cyano-3,5-dimethylphenoxy)cyclohexyl)-5-(4-((((1r,3r)-3-((2-(2,6-dioxopiperidin-3-yl)-7-methoxy-1,3-dioxoisoindolin-5-yl)oxy)cyclobutyl) (isopropyl)amino)methyl)piperidin-1-yl)pyrazine-2-carboxamide], under 1 nM.
On to `CC(C)N(CC1CCN(c2cnc(C(=O)N[C@H]3CC[C@H](Oc4ccc(C#N)c(Cl)c4)CC3)cn2)CC1)[C@H]1C[C@H](Oc2ccc3c(c2)C(=O)N([C@@H]2C(=O)NC(=O)C[C@H]2C)C3=O)C1` [Compound 75, N-((1r,4r)-4-(3-chloro-4-cyanophenoxy)cyclohexyl)-5-(4-((isopropyl((1S,3r)-3-((2-((3S,4R)-4-methyl-2,6-dioxopiperidin-3-yl)-1,3-dioxoisoindolin-5-yl)oxy)cyclobutyl)amino)methyl)piperidin-1-yl)pyrazine-2-carboxamide], for which the DC50 was over 100 nM.

Still in this assay, the particulars now being: degradation of AR ELISA in LNCaP and/or VCaP cells; Table 2C; read-out: DC50 Code*.
Consider `COc1cc(O[C@H]2C[C@H](OC3CCN(c4ccc(C(=O)N[C@H]5C(C)(C)[C@H](Oc6cc(C)c(C#N)c(C)c6)C5(C)C)cc4)CC3)C2)cc2c1C(=O)N(C1CCC(=O)NC1=O)C2=O` (mixture of isomers) [compound 197, rac-N-((1r,3r)-3-(4-cyano-3,5-dimethylphenoxy)-2,2,4,4-tetramethylcyclobutyl)-4-(4-((1r,3r)-3-((2-(2,6-dioxopiperidin-3-yl)-7-methoxy-1,3-dioxoisoindolin-5-yl)oxy)cyclobutoxy)piperidin-1-yl)benzamide], for which the DC50 is under 1 nM.
The same measure, in the same setting: for `CC1(C)[C@H](NC(=O)c2ccn([C@H]3CC[C@H](CCCOc4ccc5c(c4)C(=O)N(C4CCC(=O)NC4=O)C5=O)CC3)n2)C(C)(C)[C@H]1Oc1ccc(C#N)c(Cl)c1` (stereo partly drawn) [compound 140, N-((1r,3R)-3-(3-chloro-4-cyanophenoxy)-2,2,4,4-tetramethylcyclobutyl)-1-((1r,4R)-4-(3-((2-(2,6-dioxopiperidin-3-yl)-1,3-dioxoisoindolin-5-yl)oxy)propyl)cyclohexyl)-1H-pyrazole-3-carboxamide] the value was over 100 nM.
Same read-out and setting: for `Cc1cc(O[C@H]2C(C)(C)[C@H](NC(=O)c3ccc(N4CCC(CN5CCCC[C@H]5COc5ccc6c(c5)C(=O)N(C5CCC(=O)NC5=O)C6=O)CC4)cc3)C2(C)C)cc(C)c1C#N` (stereo partly drawn) [compound 162, N-((1r,3S)-3-(4-cyano-3,5-dimethylphenoxy)-2,2,4,4-tetramethylcyclobutyl)-4-(4-(((2S)-2-(((2-(2,6-dioxopiperidin-3-yl)-1,3-dioxoisoindolin-5-yl)oxy)methyl)piperidin-1-yl)methyl)piperidin-1-yl)benzamide] the value was under 1 nM; for `Cc1cc(O[C@H]2C(C)(C)[C@H](NC(=O)c3cnc(N4CC(CCN5CCC(Oc6ccc7c(c6)C(=O)N(C6CCC(=O)NC6=O)C7=O)CC5)C4)cn3)C2(C)C)cc(C)c1C#N` (stereo partly shown) [compound 143, N-((1r,3r)-3-(4-cyano-3,5-dimethylphenoxy)-2,2,4,4-tetramethylcyclobutyl)-5-(3-(2-(4-((2-(2,6-dioxopiperidin-3-yl)-1,3-dioxoisoindolin-5-yl)oxy)piperidin-1-yl)ethyl)azetidin-1-yl)pyrazine-2-carboxamide], over 100 nM; for `COc1cc(O[C@H]2C[C@H](N(C)C3CCN(c4ccc(C(=O)N[C@H]5C(C)(C)[C@H](Oc6cc(C)c(C#N)c(C)c6)C5(C)C)cc4)CC3)C2)cc2c1C(=O)N(C1CCC(=O)NC1=O)C2=O` (mixture of isomers) [compound 189, rac-N-((1r,3r)-3-(4-cyano-3,5-dimethylphenoxy)-2,2,4,4-tetramethylcyclobutyl)-4-(4-(((1r,3r)-3-((2-(2,6-dioxopiperidin-3-yl)-7-methoxy-1,3-dioxoisoindolin-5-yl)oxy)cyclobutyl) (methyl)amino)piperidin-1-yl)benzamide], under 1 nM.
Same read-out and setting: for `CC(C)N(CC1CCN(c2cnc(C(=O)N[C@H]3C(C)(C)[C@H](Oc4ccc(C#N)c(Cl)c4)C3(C)C)cn2)CC1)[C@H]1C[C@H](Oc2ccc3c(c2)C(=O)N(C2CCC(=O)NC2=O)C3)C1` (stereo partly shown) [compound 123, N-((1r,3r)-3-(3-chloro-4-cyanophenoxy)-2,2,4,4-tetramethylcyclobutyl)-5-(4-((((1r,3r)-3-((2-(2,6-dioxopiperidin-3-yl)-3-oxoisoindolin-5-yl)oxy)cyclobutyl) (isopropyl)amino)methyl)piperidin-1-yl)pyrazine-2-carboxamide] the value was under 1 nM.
